Source: ChEMBL document CHEMBL1777681, “Structure and activity relationships of tartrate-based TACE inhibitors” (Bioorg Med Chem Lett, 2010)

Test system: not listed separately
Test: AUC in Sprague-Dawley rat at 3 mg/kg, iv
Assay type: ADME, organism-based
Set-up: dose 3 mg/kg, route intravenous
Conditions: plasma

Structure (SMILES) | AUC [µM·h]
C[C@@H](NC(=O)[C@H](O)[C@@H](O)C(=O)N1CCC[C@@H]1c1cccc(Cl)c1)c1ccc(-n2cccn2)cc1 | 3.1

Target: T1, Disintegrin and metalloproteinase domain-containing protein 17 (Homo sapiens, UniProt P78536)
T1 sequence (P78536 whole entry, the tested form may be a part): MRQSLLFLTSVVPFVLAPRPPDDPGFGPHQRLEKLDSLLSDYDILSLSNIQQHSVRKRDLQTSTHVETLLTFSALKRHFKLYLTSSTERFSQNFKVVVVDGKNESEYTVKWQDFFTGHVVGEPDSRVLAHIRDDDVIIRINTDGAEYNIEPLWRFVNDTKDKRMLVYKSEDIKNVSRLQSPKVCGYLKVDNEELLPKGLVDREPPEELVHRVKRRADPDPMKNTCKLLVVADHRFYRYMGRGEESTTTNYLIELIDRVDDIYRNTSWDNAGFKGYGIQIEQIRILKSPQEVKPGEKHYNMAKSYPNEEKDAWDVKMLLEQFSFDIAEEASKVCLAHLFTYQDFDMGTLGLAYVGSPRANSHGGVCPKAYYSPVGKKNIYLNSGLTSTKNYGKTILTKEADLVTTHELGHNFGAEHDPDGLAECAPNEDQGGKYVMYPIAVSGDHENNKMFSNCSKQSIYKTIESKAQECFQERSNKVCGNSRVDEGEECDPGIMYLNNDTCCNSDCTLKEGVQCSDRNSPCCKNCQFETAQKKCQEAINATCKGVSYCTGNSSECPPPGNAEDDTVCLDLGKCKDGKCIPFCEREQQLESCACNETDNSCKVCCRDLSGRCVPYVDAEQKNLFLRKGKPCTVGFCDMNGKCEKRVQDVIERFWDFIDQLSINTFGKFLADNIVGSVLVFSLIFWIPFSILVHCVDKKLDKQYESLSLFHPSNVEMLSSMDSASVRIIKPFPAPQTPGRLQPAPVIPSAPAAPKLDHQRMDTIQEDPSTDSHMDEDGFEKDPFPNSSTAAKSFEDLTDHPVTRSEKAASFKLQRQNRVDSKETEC
Test: Inhibition of TACE at 500 nM
Conditions: not given

Structure (SMILES) | inhibition [%]
O=C(NCc1cccs1)[C@H](O)[C@@H](O)C(=O)N1CCCC1c1cccc(Cl)c1 (stereo partly specified) | 44
O=C(NCc1ccc(Cc2cccc3ccccc23)s1)[C@H](O)[C@@H](O)C(=O)N1CCC[C@@H]1c1cccc(Cl)c1 | 50

Test system: not listed separately
Test: Bioavailability in Sprague-Dawley rat at 10 mg/kg, po
Assay type: ADME, organism-based
Conditions: in vivo

Structure (SMILES) | bioavailability [%]
C[C@@H](NC(=O)[C@H](O)[C@@H](O)C(=O)N1CCC[C@@H]1c1cccc(Cl)c1)c1ccc(-n2cccn2)cc1 | 20

Target: T2, Disintegrin and metalloproteinase domain-containing protein 10 (Homo sapiens, UniProt O14672)
T2 sequence (O14672 whole entry): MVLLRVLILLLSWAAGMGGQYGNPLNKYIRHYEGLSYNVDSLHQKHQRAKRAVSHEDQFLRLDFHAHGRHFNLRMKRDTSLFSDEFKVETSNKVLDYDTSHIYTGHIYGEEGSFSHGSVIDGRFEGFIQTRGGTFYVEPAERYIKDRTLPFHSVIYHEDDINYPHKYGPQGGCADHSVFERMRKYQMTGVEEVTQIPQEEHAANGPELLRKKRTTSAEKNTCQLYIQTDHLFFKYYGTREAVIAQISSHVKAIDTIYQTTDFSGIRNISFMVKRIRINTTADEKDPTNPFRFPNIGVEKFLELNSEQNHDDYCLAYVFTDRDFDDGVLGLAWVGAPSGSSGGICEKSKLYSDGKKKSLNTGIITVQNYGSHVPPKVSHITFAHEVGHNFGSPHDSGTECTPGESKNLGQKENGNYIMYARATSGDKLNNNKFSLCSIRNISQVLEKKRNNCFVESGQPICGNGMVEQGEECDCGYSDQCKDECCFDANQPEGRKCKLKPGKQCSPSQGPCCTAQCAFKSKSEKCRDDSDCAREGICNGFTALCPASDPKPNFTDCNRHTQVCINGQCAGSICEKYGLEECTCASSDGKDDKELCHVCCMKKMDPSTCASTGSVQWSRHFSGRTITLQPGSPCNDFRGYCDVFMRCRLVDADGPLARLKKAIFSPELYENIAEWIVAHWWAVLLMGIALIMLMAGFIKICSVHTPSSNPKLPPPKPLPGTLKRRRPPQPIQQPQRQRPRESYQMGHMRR
Test: Inhibition of ADAM10
Conditions: not given

Structure (SMILES) | Ki [nM]
O=C(NCc1ccc(-n2cccn2)cc1)[C@H](O)[C@@H](O)C(=O)N1CCCC1c1cccc(Cl)c1 (mixture of isomers) | 602
C[C@@H](NC(=O)[C@H](O)[C@@H](O)C(=O)N1CCC[C@@H]1c1cccc(Cl)c1)c1ccc(-n2cccn2)cc1 | 166

Target: 72 kDa type IV collagenase (Homo sapiens, UniProt P08253)
Sequence (P08253 whole entry): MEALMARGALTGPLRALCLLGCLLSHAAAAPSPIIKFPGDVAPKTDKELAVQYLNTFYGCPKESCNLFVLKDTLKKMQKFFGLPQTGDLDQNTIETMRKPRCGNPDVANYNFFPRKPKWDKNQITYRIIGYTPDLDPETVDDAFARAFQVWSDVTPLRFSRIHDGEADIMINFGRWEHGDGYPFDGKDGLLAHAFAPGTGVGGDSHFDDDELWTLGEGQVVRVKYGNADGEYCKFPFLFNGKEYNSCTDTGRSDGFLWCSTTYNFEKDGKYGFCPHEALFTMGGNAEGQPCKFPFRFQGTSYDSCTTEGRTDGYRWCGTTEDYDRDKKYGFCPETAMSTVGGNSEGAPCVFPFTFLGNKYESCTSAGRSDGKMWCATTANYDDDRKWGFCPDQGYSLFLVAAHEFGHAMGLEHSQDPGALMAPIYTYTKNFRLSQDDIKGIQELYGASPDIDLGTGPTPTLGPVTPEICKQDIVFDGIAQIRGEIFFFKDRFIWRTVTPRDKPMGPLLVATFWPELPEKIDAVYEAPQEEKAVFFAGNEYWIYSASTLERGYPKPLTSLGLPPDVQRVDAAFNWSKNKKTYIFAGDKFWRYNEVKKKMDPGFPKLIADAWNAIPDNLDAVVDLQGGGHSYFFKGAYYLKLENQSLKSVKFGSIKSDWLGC
Test: Inhibition of MMP2
Conditions: not given

Structure (SMILES) | Ki [nM]
O=C(NCc1ccc(-n2cccn2)cc1)[C@H](O)[C@@H](O)C(=O)N1CCCC1c1cccc(Cl)c1 (mixture of isomers) | 1900
C[C@@H](NC(=O)[C@H](O)[C@@H](O)C(=O)N1CCC[C@@H]1c1cccc(Cl)c1)c1ccc(-n2cccn2)cc1 | 43600

Target: T1, Disintegrin and metalloproteinase domain-containing protein 17
Test: Inhibition of TACE
Conditions: not given

Structure (SMILES) | Ki [nM]
O=C(NCc1ccc(Cc2ccsc2)s1)[C@H](O)[C@@H](O)C(=O)N1CCC[C@@H]1c1cccc(Cl)c1 | 11
O=C(NCc1ccc(-c2cccnc2)cc1)[C@H](O)[C@@H](O)C(=O)N1CCC[C@@H]1c1ccccc1 | 36
Cc1nc2ccccc2n1Cc1ccc(CNC(=O)[C@H](O)[C@@H](O)C(=O)N2CCCC2c2nccs2)s1 (mixture of isomers) | 9
Cc1nc2ccccc2n1Cc1ccc(CNC(=O)[C@H](O)[C@@H](O)C(=O)N2CCCC2c2ccncc2)s1 (mixture of isomers) | 36
O=C(NCc1ccc(-c2cccs2)cc1)[C@H](O)[C@@H](O)C(=O)N1CCC[C@@H]1c1ccccc1 | 28
O=C(NCc1cc(Cc2ccccc2)cs1)[C@H](O)[C@@H](O)C(=O)N1CCCC1c1cccc(Cl)c1 (stereo partly specified) | 45
O=C(NCc1ccc(-c2ccon2)cc1)[C@H](O)[C@@H](O)C(=O)N1CCC[C@@H]1c1ccccc1 | 8
O=C(NCc1ccc(-c2csnn2)cc1)[C@H](O)[C@@H](O)C(=O)N1CCCC1c1cccc(Cl)c1 (mixture of isomers) | 3
Cc1nc2ccccc2n1Cc1ccc(CNC(=O)[C@H](O)[C@@H](O)C(=O)N2CCCC2c2cccs2)s1 (mixture of isomers) | 4
Cc1nc2ccccc2n1Cc1ccc(CNC(=O)[C@H](O)[C@@H](O)C(=O)N2CCCC2c2cccnc2)s1 (mixture of isomers) | 12
COc1ccccc1Cc1ccc(CNC(=O)[C@H](O)[C@@H](O)C(=O)N2CCC[C@@H]2c2cccc(Cl)c2)s1 | 3
O=C(NCc1ccc(Cc2ccccc2Cl)s1)[C@H](O)[C@@H](O)C(=O)N1CCC[C@@H]1c1cccc(Cl)c1 | 9.3
O=C(NCc1ccc(-n2ccnc2)cc1)[C@H](O)[C@@H](O)C(=O)N1CCCC1c1cccc(Cl)c1 (mixture of isomers) | 270
O=C(NCc1ccc(Cc2ccccc2)s1)[C@H](O)[C@@H](O)C(=O)N1CCC[C@@H]1c1cccc(Cl)c1 | 20
O=C(NCc1ccc(-c2ccncc2)cc1)[C@H](O)[C@@H](O)C(=O)N1CCC[C@@H]1c1ccccc1 | 15
N#Cc1ccccc1N1CC2C(CNC(=O)[C@H](O)[C@@H](O)C(=O)N3CCC[C@@H]3c3ccccc3)C2C1 (stereo partly specified) | 12
N#Cc1ccccc1N1CCC(CNC(=O)[C@H](O)[C@@H](O)C(=O)N2CCCC2c2cccc(Cl)c2)CC1 (mixture of isomers) | 4
O=C(NCc1ccc(-c2ccccc2)nc1)[C@H](O)[C@@H](O)C(=O)N1CCCC1c1cccc(Cl)c1 (mixture of isomers) | 307
O=C(NCc1ccc(-n2cccn2)cc1)[C@H](O)[C@@H](O)C(=O)N1CCCC1c1cccc(Cl)c1 (mixture of isomers) | 4
O=C(NCc1ccc(Cn2ccnc2)s1)[C@H](O)[C@@H](O)C(=O)N1CCC[C@@H]1c1cccc(Cl)c1 | 37

Structure (SMILES) | Ki [nM]
Cc1nc2ccccc2n1Cc1ccc(CNC(=O)[C@H](O)[C@@H](O)C(=O)N2CCCC2c2ccccn2)s1 (mixture of isomers) | 8
O=C(NCc1ccc(-c2ccsc2)cc1)[C@H](O)[C@@H](O)C(=O)N1CCC[C@@H]1c1ccccc1 | 13
O=C(NCc1ccc(-c2ccccc2)cc1)[C@H](O)[C@@H](O)C(=O)N1CCC[C@@H]1c1ccccc1 | 22
Cc1nc2ccccc2n1Cc1ccc(CNC(=O)[C@H](O)[C@@H](O)C(=O)N2Cc3ccccc3C2)s1 | 0.5
C[C@@H]1CN(c2ccccc2C#N)CCC1CNC(=O)[C@H](O)[C@@H](O)C(=O)N1CCC[C@@H]1c1ccccc1 (stereo partly specified) | 2
O=C(NCc1ccc(Cn2c(C(F)(F)F)nc3ccccc32)s1)[C@H](O)[C@@H](O)C(=O)N1Cc2ccccc2C1 | 0.2
Cc1nc2ccccc2n1Cc1ccc(CNC(=O)[C@H](O)[C@@H](O)C(=O)N2CCC[C@@H]2c2csc(N)n2)s1 | 2
C[C@@H](NC(=O)[C@H](O)[C@@H](O)C(=O)N1CCC[C@@H]1c1cccc(Cl)c1)c1ccc(-n2cccn2)cc1 | 0.86
Cc1nc2ccccc2n1Cc1ccc(CNC(=O)[C@H](O)[C@@H](O)C(=O)N2CCC[C@@H]2c2cccc(Cl)c2)s1 | 4
O=C(NCc1ccc(-c2nccs2)cc1)[C@H](O)[C@@H](O)C(=O)N1CCCC1c1cccc(Cl)c1 (mixture of isomers) | 74
O=C(NCc1ccc(-c2ccccc2)cn1)[C@H](O)[C@@H](O)C(=O)N1CCCC1c1cccc(Cl)c1 (mixture of isomers) | 6
N#Cc1sccc1-c1ccc(CNC(=O)[C@H](O)[C@@H](O)C(=O)N2CCC[C@@H]2c2ccccc2)cc1 | 2
O=C(NCc1ccc(Cc2ccc(Cl)cc2)s1)[C@H](O)[C@@H](O)C(=O)N1CCC[C@@H]1c1cccc(Cl)c1 | 37
O=C(NCc1ccc(-c2cscn2)cc1)[C@H](O)[C@@H](O)C(=O)N1CCCC1c1cccc(Cl)c1 (mixture of isomers) | 18
C[C@H]1CN(c2ccccc2C#N)CCC1CNC(=O)[C@H](O)[C@@H](O)C(=O)N1CCC[C@@H]1c1ccccc1 (stereo partly specified) | 315
O=C(NCc1ccc(Cc2cccc(Cl)c2)s1)[C@H](O)[C@@H](O)C(=O)N1CCC[C@@H]1c1cccc(Cl)c1 | 48
N#Cc1ccccc1-c1ccc(CNC(=O)[C@H](O)[C@@H](O)C(=O)N2CCC[C@@H]2c2ccccc2)cc1 | 17
Cc1nc2ccccc2n1-c1ccc(CNC(=O)[C@H](O)[C@@H](O)C(=O)N2CCCC2c2cccc(Cl)c2)cc1 (mixture of isomers) | 296
N#Cc1cnccc1-c1ccc(CNC(=O)[C@H](O)[C@@H](O)C(=O)N2CCC[C@@H]2c2ccccc2)cc1 | 5

Test system: not listed separately
Test: Clearance in Sprague-Dawley rat at 3 mg/kg, iv
Assay type: ADME, organism-based
Set-up: dose 3 mg/kg, route intravenous
Conditions: in vivo

Structure (SMILES) | clearance [mL/min/kg]
C[C@@H](NC(=O)[C@H](O)[C@@H](O)C(=O)N1CCC[C@@H]1c1cccc(Cl)c1)c1ccc(-n2cccn2)cc1 | 35

Test system: not listed separately
Test: Half life in Sprague-Dawley rat at 10 mg/kg, po
Assay type: ADME, organism-based
Set-up: dose 10 mg/kg, route oral
Conditions: in vivo

Structure (SMILES) | half-life [min]
C[C@@H](NC(=O)[C@H](O)[C@@H](O)C(=O)N1CCC[C@@H]1c1cccc(Cl)c1)c1ccc(-n2cccn2)cc1 | 36

Target: Stromelysin-1 (Homo sapiens, UniProt P08254)
Sequence (P08254 whole entry): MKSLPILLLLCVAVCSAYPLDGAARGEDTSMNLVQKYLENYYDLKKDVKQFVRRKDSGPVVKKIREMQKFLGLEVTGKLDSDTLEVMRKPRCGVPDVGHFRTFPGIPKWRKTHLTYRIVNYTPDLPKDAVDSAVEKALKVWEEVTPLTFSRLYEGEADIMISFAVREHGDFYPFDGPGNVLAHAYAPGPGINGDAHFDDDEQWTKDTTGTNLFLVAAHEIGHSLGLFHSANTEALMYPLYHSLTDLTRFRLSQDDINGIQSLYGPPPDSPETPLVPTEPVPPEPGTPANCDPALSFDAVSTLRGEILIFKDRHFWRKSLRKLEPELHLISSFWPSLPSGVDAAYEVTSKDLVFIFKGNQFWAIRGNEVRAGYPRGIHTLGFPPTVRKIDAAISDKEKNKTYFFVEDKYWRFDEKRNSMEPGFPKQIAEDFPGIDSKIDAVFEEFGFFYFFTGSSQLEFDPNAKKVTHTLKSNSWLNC
Test: Inhibition of MMP3
Conditions: not given

Structure (SMILES) | Ki [nM]
O=C(NCc1ccc(-n2cccn2)cc1)[C@H](O)[C@@H](O)C(=O)N1CCCC1c1cccc(Cl)c1 (mixture of isomers) | 19000

Target: T3, Matrilysin (Homo sapiens, UniProt P09237)
T3 sequence (P09237 whole entry): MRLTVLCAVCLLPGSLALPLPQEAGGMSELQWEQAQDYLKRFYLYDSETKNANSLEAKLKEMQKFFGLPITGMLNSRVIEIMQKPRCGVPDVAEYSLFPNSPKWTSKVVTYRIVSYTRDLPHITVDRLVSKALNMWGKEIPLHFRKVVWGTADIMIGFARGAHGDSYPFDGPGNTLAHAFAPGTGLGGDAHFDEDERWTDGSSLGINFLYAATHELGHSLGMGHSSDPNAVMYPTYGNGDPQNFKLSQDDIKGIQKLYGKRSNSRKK
Test: Inhibition of MMP7
Conditions: not given

Structure (SMILES) | Ki [nM]
O=C(NCc1ccc(-n2cccn2)cc1)[C@H](O)[C@@H](O)C(=O)N1CCCC1c1cccc(Cl)c1 (mixture of isomers) | 47000
C[C@@H](NC(=O)[C@H](O)[C@@H](O)C(=O)N1CCC[C@@H]1c1cccc(Cl)c1)c1ccc(-n2cccn2)cc1 | 3800

Target: Matrix metalloproteinase-14 (Homo sapiens, UniProt P50281)
Test: Inhibition of MMP14
Conditions: not given

Structure (SMILES) | Ki [nM]
O=C(NCc1ccc(-n2cccn2)cc1)[C@H](O)[C@@H](O)C(=O)N1CCCC1c1cccc(Cl)c1 (mixture of isomers) | 120
C[C@@H](NC(=O)[C@H](O)[C@@H](O)C(=O)N1CCC[C@@H]1c1cccc(Cl)c1)c1ccc(-n2cccn2)cc1 | 1100

Target: Collagenase 3 (Homo sapiens, UniProt P45452)
Test: Inhibition of MMP13
Conditions: not given

Structure (SMILES) | Ki [nM]
O=C(NCc1ccc(-n2cccn2)cc1)[C@H](O)[C@@H](O)C(=O)N1CCCC1c1cccc(Cl)c1 (mixture of isomers) | 3500
C[C@@H](NC(=O)[C@H](O)[C@@H](O)C(=O)N1CCC[C@@H]1c1cccc(Cl)c1)c1ccc(-n2cccn2)cc1 | 3300

Target: Matrix metalloproteinase-9 (Homo sapiens, UniProt P14780)
Sequence (P14780 whole entry): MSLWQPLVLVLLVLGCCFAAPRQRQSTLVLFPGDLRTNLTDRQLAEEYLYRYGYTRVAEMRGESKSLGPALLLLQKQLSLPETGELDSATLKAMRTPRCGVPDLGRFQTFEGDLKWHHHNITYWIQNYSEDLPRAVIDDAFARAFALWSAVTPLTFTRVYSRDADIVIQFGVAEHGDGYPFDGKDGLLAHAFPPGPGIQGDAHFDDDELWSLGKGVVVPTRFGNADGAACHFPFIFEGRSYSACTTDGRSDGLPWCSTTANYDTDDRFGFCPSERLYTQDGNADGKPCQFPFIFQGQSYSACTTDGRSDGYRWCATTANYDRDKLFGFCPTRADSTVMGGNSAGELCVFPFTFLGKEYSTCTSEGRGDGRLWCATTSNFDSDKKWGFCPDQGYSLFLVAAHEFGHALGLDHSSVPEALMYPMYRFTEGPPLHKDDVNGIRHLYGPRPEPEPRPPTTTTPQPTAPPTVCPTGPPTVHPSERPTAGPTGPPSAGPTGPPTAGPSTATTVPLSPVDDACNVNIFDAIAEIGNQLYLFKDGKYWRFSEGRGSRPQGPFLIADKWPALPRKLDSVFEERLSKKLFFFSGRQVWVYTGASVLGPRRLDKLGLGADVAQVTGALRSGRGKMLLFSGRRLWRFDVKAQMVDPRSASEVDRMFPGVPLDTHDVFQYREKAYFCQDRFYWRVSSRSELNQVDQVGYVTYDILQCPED
Test: Inhibition of MMP9
Conditions: not given

Structure (SMILES) | Ki [nM]
O=C(NCc1ccc(-n2cccn2)cc1)[C@H](O)[C@@H](O)C(=O)N1CCCC1c1cccc(Cl)c1 (mixture of isomers) | 11000
C[C@@H](NC(=O)[C@H](O)[C@@H](O)C(=O)N1CCC[C@@H]1c1cccc(Cl)c1)c1ccc(-n2cccn2)cc1 | 88400

Target: T4, Interstitial collagenase (Homo sapiens, UniProt P03956)
T4 sequence (P03956 whole entry): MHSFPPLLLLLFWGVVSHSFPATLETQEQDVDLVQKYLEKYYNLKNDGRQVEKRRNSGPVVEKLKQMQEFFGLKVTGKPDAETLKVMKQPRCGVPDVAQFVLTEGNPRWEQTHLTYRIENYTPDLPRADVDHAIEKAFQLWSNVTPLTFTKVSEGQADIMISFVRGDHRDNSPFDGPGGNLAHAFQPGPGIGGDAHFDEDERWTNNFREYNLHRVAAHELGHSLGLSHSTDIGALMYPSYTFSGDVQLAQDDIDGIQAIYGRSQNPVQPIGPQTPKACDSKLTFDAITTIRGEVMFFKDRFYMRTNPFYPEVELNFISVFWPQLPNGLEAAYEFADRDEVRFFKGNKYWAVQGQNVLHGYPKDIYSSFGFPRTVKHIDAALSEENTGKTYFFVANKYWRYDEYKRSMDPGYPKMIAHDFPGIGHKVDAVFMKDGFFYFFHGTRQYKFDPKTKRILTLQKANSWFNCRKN
Test: Inhibition of MMP1
Conditions: not given

Structure (SMILES) | Ki [nM]
O=C(NCc1ccc(-n2cccn2)cc1)[C@H](O)[C@@H](O)C(=O)N1CCCC1c1cccc(Cl)c1 (mixture of isomers) | > 100000
C[C@@H](NC(=O)[C@H](O)[C@@H](O)C(=O)N1CCC[C@@H]1c1cccc(Cl)c1)c1ccc(-n2cccn2)cc1 | > 100000

Test system: not listed separately
Test: AUC in Sprague-Dawley rat at 10 mg/kg, po
Assay type: ADME, organism-based
Set-up: dose 10 mg/kg, route oral
Conditions: plasma

Structure (SMILES) | AUC [µM·h]
C[C@@H](NC(=O)[C@H](O)[C@@H](O)C(=O)N1CCC[C@@H]1c1cccc(Cl)c1)c1ccc(-n2cccn2)cc1 | 2.1
